Experimental data: US20060067981A1, “Contact lens with improved biocidal activity and related methods and materials” (Bausch & Lomb Incorporated, priority 2004, published 2006)
Several values for one entry are separate records, joined by “and”; a condition that tells them apart may be missing. Equal values may be shown once.

What was measured:
Type in all cases: physicochemical
[1] = Uptake of domaphen bromide by lens in citrate buffer system
Description: Three solutions made according to the formulation of Example 1 were made with a 25 ppm (Solution 10), 50 ppm (Solution 11) and 100 ppm (Solution 12) domaphen bromide concentrations, except the borate buffer system was replaced with an equivalent amount of a citrate buffer system and the water amount was adjusted accordingly. Two 3 ml portions of Solutions 10-12 in solution were placed in six separate vials. A total of six Sureview™ lens (Johnson & Johnson, New Brunswick, N.J.) were placed in the vials—one lens per each vial. The vials remained in the lens for a first 24 hour soaking cycle. After 24 hours, the lenses were removed. The amount of domaphen bromide remaining in each of the 3 ml solutions is measured by ultraviolet visible (UV/VIS) spectrometer analytical method. Inhibition % is calculated to reflect the amount of domaphen bromide that remains in the solution expressed as a percentage of the total amount of domaphen bromide. Inhibition % is recorded in Table 5 corresponding to a soaking time of 24 hours. This completed the first test cycle. The lenses removed during the first soaking cycle were placed in six fresh vials containing two 3 ml portions of solutions 10-12 to commence the second 24 hour soaking cycle. Care was taken to make sure that the solution the lens is soaked in during the second cycle is identical to the solution in the first cycle. Thus, each pair of lenses is soaked in concentrations of Solutions 10-12 identical to the concentration that the lens was soaked in during the first soak cycle. After 24 hours, the lenses are removed. The solutions are tested to determine the concentration domaphen bromide in solution. The inhibition % is calculated and recorded in Table 5 corresponding to 48 hour soak time. The lenses were again soaked for a third and fourth soak cycle. The domaphen bromide inhibition % was recorded after the third and fourth soak cycle and recorded in Table 5 corresponding to the 72 hour and 96 hour soak times, respectively.

[2] = Uptake of domaphen bromide by lens in phosphate buffer system; conditions: % remaining in solution; for Inhibition % in 25 ppm Domiphen Bromide: 25 ppm (Solution 7); for Inhibition % in 50 ppm Domiphen Bromide: 50 ppm (Solution 8); for Inhibition % in 100 ppm Domiphen Bromide: 100 ppm (Solution 9)
Description: Three solutions made according to the formulation of Example 1 were made with a 25 ppm (Solution 7), 50 ppm (Solution 8) and 100 ppm (Solution 9) domaphen bromide concentrations, except the borate buffer system was replaced with an equivalent amount of a phosphate buffer system and the amount of water was adjusted accordingly. Two 3 ml portions of Solutions 7-9 in solution were placed in six separate vials. A total of six Sureview™ lens (Johnson & Johnson, New Brunswick, N.J.) were placed in the vials—one lens per each vial. The vials remained in the lens for a first 24 hour soaking cycle. After 24 hours, the lenses were removed. The amount of domaphen bromide remaining in each of the 3 ml solutions is measured by ultraviolet visible (UV/VIS) spectrometer analytical method. Inhibition % is calculated to reflect the amount of domaphen bromide that remains in the solution expressed as a percentage of the total amount of domaphen bromide. Inhibition % is recorded in Table 4 corresponding to a soaking time of 24 hours. This completed the first test cycle. The lenses removed during the first soaking cycle were placed in six fresh vials containing two 3 ml portions of solutions 7-9 to commence the second 24 hour soaking cycle. Care was taken to make sure that the solution the lens is soaked in during the second cycle is identical to the solution in the first cycle. Thus, each pair of lenses is soaked in concentrations of Solutions 7-9 identical to the concentration that the lens was soaked in during the first soak cycle. After 24 hours, the lenses are removed. The solutions are tested to determine the concentration domaphen bromide in solution. The inhibition % is calculated and recorded in Table 4 corresponding to 48 hour soak time. The lenses were again soaked for a third and fourth soak cycle. The domaphen bromide inhibition % was recorded after the third and fourth soak-cycle and recorded in Table 4 corresponding to the 72 hour and 96 hour soak times, respectively.

[3] = Uptake of domaphen bromide by lens in tris(hydroxymethyl)aminomethane buffer system
Description: Three solutions made according to the formulation of Example 1 were made with a 25 ppm (Solution 4), 50 ppm (Solution 5) and 100 ppm (Solution 6) domaphen bromide concentrations, except the borate buffer system was replaced with an equivalent amount of a tris(hydroxymethyl)aminomethane buffer system and the water amount was adjusted accordingly. The term “equivalent amount” means the amount required to adjust the pH to the desired pH as another buffer. Two 3 ml portions of Solutions 4-6 in solution were placed in six separate vials. A total of six Sureview™ lens (Johnson & Johnson, New Brunswick, N.J.) were placed in the vials—one lens per each vial. The vials remained in the lens for a first 24 hour soaking cycle. After 24 hours, the lenses were removed. The amount of domaphen bromide remaining in each of the 3 ml solutions is measured by ultraviolet visible (UV/VIS) spectrometer analytical method. Inhibition % is calculated to reflect the amount of domaphen bromide that remains in the solution expressed as a percentage of the total amount of domaphen bromide. Inhibition % is recorded in Table 3 corresponding to a soaking time of 24 hours. This completed first test cycle. The lenses removed during the first soaking cycle were placed in six fresh vials containing two 3 ml portions of solutions 4-6 to commence the second 24 hour soaking cycle. Care was taken to make sure that the solution the lens is soaked in during the second cycle is identical to the solution in the first cycle. Thus, each pair of lenses is soaked in identical concentrations of Solutions 4-6. After 24 hours, the lenses are removed. The solutions are tested to determine the concentration domaphen bromide in solution. The inhibition % is calculated and recorded in Table 3 corresponding to 48 hour soak time. The lenses were again soaked for a third and fourth soak cycle. The domaphen bromide inhibition % was recorded after the third and fourth soak-cycle and recorded in Table 3 corresponding to the 72 hour and 96 hour soak times, respectively.

[4] = Loading time by soaking commercial contact lenses in 3 ml contact cases; conditions: most of buffer system
Description: The loading time for most of buffer system is about 12-24 hours by soaking commercial contact lenses inside the 3 ml contact cases with a certain concentration of domaphen bromide solution.

[5] = Uptake of domaphen bromide by lens in borate buffer system; conditions: for Inhibition % in 25 ppm Domiphen Bromide / Inhibition % in 50 ppm Domiphen Bromide / Inhibition % in 100 ppm Domiphen Bromide: Borate buffer, % remaining in solution; for Inhibition % in 25 ppm Domiphen Bromide: 25 ppm (Solution 13); for Inhibition % in 50 ppm Domiphen Bromide: 50 ppm (Solution 14); for Inhibition % in 100 ppm Domiphen Bromide: 100 ppm (Solution 15)
Description: Three solutions made according to the formulation of Example 1 were made with a 25 ppm (Solution 13), 50 ppm (Solution 14) and 100 ppm (Solution 15) domaphen bromide concentrations. Two 3 ml portions of Solutions 13-15 in solution were placed in six separate vials. A total of six Sureview™ lens (Johnson & Johnson, New Brunswick, N.J.) were placed in the vials—one lens per each vial. The vials remained in the lens for a first 24 hour soaking cycle. After 24 hours, the lenses were removed. The amount of domaphen bromide remaining in each of the 3 ml solutions is measured by ultraviolet visible (UV/VIS) spectrometer analytical method. Inhibition % is calculated to reflect the amount of domaphen bromide that remains in the solution expressed as a percentage of the total amount of domaphen bromide. Inhibition % is recorded in Table 6 corresponding to a soaking time of 24 hours. This completed the first test cycle. The lenses removed during the first soaking cycle were placed in six fresh vials containing two 3 ml portions of Solutions 13-15 to commence the second 24 hour soaking cycle. Care was taken to make sure that the solution the lens is soaked in during the second cycle is identical to the solution in the first cycle. Thus, each pair of lenses is soaked in concentrations of Solutions 13-15 identical to the concentration that the lens was soaked in during the first soak cycle. After 24 hours, the lenses are removed. The solutions are tested to determine the concentration domaphen bromide in solution. The inhibition % is calculated and recorded in Table 6 corresponding to 48 hour soak time. The lenses were again soaked for a third and fourth soak cycle. The domaphen bromide inhibition % was recorded after the third and fourth soak cycle and recorded in Table 6 corresponding to the 72 hour and 96 hour soak times, respectively.

## CCCCCCCCCCCC[N+](C)(C)CCOc1ccccc1 [Domiphen Bromide]
[1]; 25 ppm (Solution 10), soaking time 24 hours
  Domiphen bromide remaining in solution (%): 63.20% and 75.66%
[1]; 25 ppm (Solution 10), soaking time 48 hours
  Domiphen bromide remaining in solution (%): 71.57% and 73.25%
[1]; 25 ppm (Solution 10), soaking time 72 hours
  Domiphen bromide remaining in solution (%): 64.34% and 76.59%
[1]; 25 ppm (Solution 10), soaking time 96 hours
  Domiphen bromide remaining in solution (%): 59.17% and 64.89%
[1]; 50 ppm (Solution 11), soaking time 24 hours
  Domiphen bromide remaining in solution (%): 76.51% and 80.02%
[1]; 50 ppm (Solution 11), soaking time 48 hours
  Domiphen bromide remaining in solution (%): 78.39% and 72.39%
[1]; 50 ppm (Solution 11), soaking time 72 hours
  Domiphen bromide remaining in solution (%): 67.91% and 77.42%
[1]; 50 ppm (Solution 11), soaking time 96 hours
  Domiphen bromide remaining in solution (%): 59.28% and 69.87%
[1]; 100 ppm (Solution 12), soaking time 24 hours
  Domiphen bromide remaining in solution (%): 75.59% and 77.95%
[1]; 100 ppm (Solution 12), soaking time 48 hours
  Domiphen bromide remaining in solution (%): 79.63% and 70.90%
[1]; 100 ppm (Solution 12), soaking time 72 hours
  Domiphen bromide remaining in solution (%): 71.04% and 81.39%
[1]; 100 ppm (Solution 12), soaking time 96 hours
  Domiphen bromide remaining in solution (%): 62.97% and 74.47%
[2]; soaking time 24 hours
  Inhibition % in 25 ppm Domiphen Bromide: 43.92% and 51.40%
  Inhibition % in 50 ppm Domiphen Bromide: 47.12% and 49.78%
  Inhibition % in 100 ppm Domiphen Bromide: 48.87% and 47.95%
[2]; soaking time 48 hours
  Inhibition % in 25 ppm Domiphen Bromide: 50.19% and 51.75%
  Inhibition % in 50 ppm Domiphen Bromide: 49.51% and 49.86%
  Inhibition % in 100 ppm Domiphen Bromide: 46.77% and 47.52%
[2]; soaking time 72 hours
  Inhibition % in 25 ppm Domiphen Bromide: 52.34% and 47.54%
  Inhibition % in 50 ppm Domiphen Bromide: 46.67% and 48.35%
  Inhibition % in 100 ppm Domiphen Bromide: 43.55% and 45.54%
[2]; soaking time 96 hours
  Inhibition % in 25 ppm Domiphen Bromide: 41.31% and 34.37%
  Inhibition % in 50 ppm Domiphen Bromide: 34.47% and 37.30%
  Inhibition % in 100 ppm Domiphen Bromide: 34.67% and 37.15%
[3]; 25 ppm (Solution 4), soaking time 24 hours
  Domiphen bromide remaining in solution (% of total): 78.59% and 75.76%
[3]; 25 ppm (Solution 4), soaking time 48 hours
  Domiphen bromide remaining in solution (% of total): 57.91% and 62.72%
[3]; 25 ppm (Solution 4), soaking time 72 hours
  Domiphen bromide remaining in solution (% of total): 59.19% and 53.50%
[3]; 25 ppm (Solution 4), soaking time 96 hours
  Domiphen bromide remaining in solution (% of total): 55.13% and 52.65%
[3]; 50 ppm (Solution 5), soaking time 24 hours
  Domiphen bromide remaining in solution (% of total): 73.59% and 67.65%
[3]; 50 ppm (Solution 5), soaking time 48 hours
  Domiphen bromide remaining in solution (% of total): 68.18% and 66.35%
[3]; 50 ppm (Solution 5), soaking time 72 hours
  Domiphen bromide remaining in solution (% of total): 58.25% and 56.17%
[3]; 50 ppm (Solution 5), soaking time 96 hours
  Domiphen bromide remaining in solution (% of total): 80.84% and 81.31%
[3]; 100 ppm (Solution 6), soaking time 24 hours
  Domiphen bromide remaining in solution (% of total): 68.39% and 63.58%
[3]; 100 ppm (Solution 6), soaking time 48 hours
  Domiphen bromide remaining in solution (% of total): 65.50% and 63.71%
[3]; 100 ppm (Solution 6), soaking time 72 hours
  Domiphen bromide remaining in solution (% of total): 56.54% and 58.19%
[3]; 100 ppm (Solution 6), soaking time 96 hours
  Domiphen bromide remaining in solution (% of total): 53.91% and 59.25%
[4]
  loading time: 12 to 24 h
[5]; soaking time 24 hours
  Inhibition % in 25 ppm Domiphen Bromide: 21.85%
  Inhibition % in 50 ppm Domiphen Bromide: 29.80% and 29.88%
  Inhibition % in 100 ppm Domiphen Bromide: 14.68% and 17.15%
[5]; soaking time 48 hours
  Inhibition % in 25 ppm Domiphen Bromide: 36.68% and 35.57%
  Inhibition % in 50 ppm Domiphen Bromide: 36.31% and 32.62%
  Inhibition % in 100 ppm Domiphen Bromide: 19.08% and 15.10%
[5]; soaking time 72 hours
  Inhibition % in 25 ppm Domiphen Bromide: 33.41% and 33.18%
  Inhibition % in 50 ppm Domiphen Bromide: 31.35% and 37.25%
  Inhibition % in 100 ppm Domiphen Bromide: 12.02% and 18.58%
[5]; soaking time 96 hours
  Inhibition % in 25 ppm Domiphen Bromide: 31.54% and 39.03%
  Inhibition % in 50 ppm Domiphen Bromide: 28.30% and 37.79%
  Inhibition % in 100 ppm Domiphen Bromide: 14.11% and 20.21%
[5]; borate buffer, as high as
  loading percentage (100% minus Inhibition%): 70-80%
